From the Kinase Knowledgebase extract (Sharma et al. 2016) come the findings set out here.

For this assay, the target named is EGFR (UniProt P00533).
Sequence of EGFR (P00533 whole entry, looked up): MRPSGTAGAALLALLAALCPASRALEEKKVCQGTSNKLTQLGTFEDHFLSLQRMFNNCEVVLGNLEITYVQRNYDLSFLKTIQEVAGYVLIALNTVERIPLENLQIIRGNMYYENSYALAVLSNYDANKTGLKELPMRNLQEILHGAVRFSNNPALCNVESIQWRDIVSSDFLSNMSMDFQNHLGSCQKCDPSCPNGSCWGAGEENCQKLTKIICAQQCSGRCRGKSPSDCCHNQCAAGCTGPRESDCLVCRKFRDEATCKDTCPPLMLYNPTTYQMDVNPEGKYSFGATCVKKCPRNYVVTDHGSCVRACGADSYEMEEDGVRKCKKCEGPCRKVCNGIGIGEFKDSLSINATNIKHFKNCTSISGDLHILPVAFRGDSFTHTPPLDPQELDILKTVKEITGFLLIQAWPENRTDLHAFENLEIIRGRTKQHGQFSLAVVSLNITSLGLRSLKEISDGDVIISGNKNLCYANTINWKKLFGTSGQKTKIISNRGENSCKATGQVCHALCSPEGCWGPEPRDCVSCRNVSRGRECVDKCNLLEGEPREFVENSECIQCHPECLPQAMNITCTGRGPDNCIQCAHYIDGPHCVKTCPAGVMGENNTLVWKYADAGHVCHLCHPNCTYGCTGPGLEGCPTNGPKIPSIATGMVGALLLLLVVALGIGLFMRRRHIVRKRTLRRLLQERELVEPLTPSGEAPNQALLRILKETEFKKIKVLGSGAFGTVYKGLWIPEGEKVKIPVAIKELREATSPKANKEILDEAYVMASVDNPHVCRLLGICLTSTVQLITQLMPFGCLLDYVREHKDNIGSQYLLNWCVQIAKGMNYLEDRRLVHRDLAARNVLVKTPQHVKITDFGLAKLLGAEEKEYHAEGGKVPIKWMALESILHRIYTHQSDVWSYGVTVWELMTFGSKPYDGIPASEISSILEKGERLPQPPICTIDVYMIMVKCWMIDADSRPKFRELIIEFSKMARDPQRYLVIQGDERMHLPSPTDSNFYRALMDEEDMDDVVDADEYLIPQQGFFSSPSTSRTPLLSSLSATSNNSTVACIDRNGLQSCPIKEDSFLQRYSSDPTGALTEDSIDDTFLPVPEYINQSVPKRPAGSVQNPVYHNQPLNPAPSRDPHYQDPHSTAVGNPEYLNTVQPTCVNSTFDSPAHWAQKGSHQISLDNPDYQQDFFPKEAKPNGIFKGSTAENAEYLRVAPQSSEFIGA
Regarding `Fc1cccc(COc2ccc(Nc3ncncc3C#Cc3cncnc3)cc2Cl)c1`, the IC50 (in general, the concentration needed to halve the response being measured) is no more than 10 µM.
With `N#Cc1ccccc1C#Cc1cncnc1Nc1ccc(OCc2cccc(F)c2)c(Cl)c1`, the IC50 was no more than 10 µM.
Take `COC(=O)CCC(=O)Nc1cccc(C#Cc2cncnc2Nc2ccc(OCc3cccc(F)c3)c(Cl)c2)n1`: the half-inhibitory concentration (IC50) lay within 0.1 to 1 µM.
The compound `N#CCCNC(=O)NCc1cccc(C#Cc2cncnc2Nc2ccc(OCc3cccc(F)c3)c(Cl)c2)n1` showed a half-maximal inhibitory concentration (IC50) of no more than 10 µM.
The figure for `CC(=O)Nc1cccc(C#Cc2cncnc2Nc2ccc(Cc3ccccc3)cc2)c1` is no more than 10 µM; for `NCCC(=O)Nc1cccc(C#Cc2cncnc2Nc2ccc(OCc3cccc(F)c3)c(Cl)c2)c1` it is no more than 10 µM.
Turning to `Fc1cccc(COc2ccc(Nc3ncncc3/C=C/c3cn[nH]c3)cc2Cl)c1`, the IC50 is no more than 10 µM.
In the case of `C(=C\c1cncnc1Nc1ccc2c(cnn2Cc2ccccc2)c1)/c1cccnc1`, the IC50 was no more than 10 µM.
In turn, `N#Cc1cccc(C#Cc2cncnc2Nc2ccc(OCc3cccc(F)c3)c(Cl)c2)c1` returned a half-maximal inhibitory concentration (IC50) of no more than 10 µM.
Compound `CS(=O)(=O)CCNc1nc(C#Cc2cncnc2Nc2ccc(OCc3cccc(F)c3)c(Cl)c2)ncc1C#N` registered an IC50 of no more than 10 µM.
`O=C(Nc1cccc(C#Cc2cncnc2Nc2ccc(OCc3cccc(F)c3)c(Cl)c2)n1)C(F)(F)F` showed an IC50 of less than 0.1 µM.
The figure for `CC(=O)Nc1cccc(C#Cc2cncnc2Nc2ccc3c(cnn3Cc3ccccc3)c2)c1` is no more than 10 µM; for `Fc1cccc(COc2ccc(Nc3ncncc3C#Cc3cccnc3)cc2Cl)c1` it is no more than 10 µM.
`Fc1cccc(COc2ccc(Nc3ncncc3/C=C/c3ccncc3)cc2Cl)c1` yielded an IC50 of less than 0.1 µM.
The figure for `CC(=O)Nc1ccc(/C=C/c2cncnc2Nc2ccc(OCc3cccc(F)c3)c(Cl)c2)cn1` is no more than 10 µM; for `CS(=O)(=O)CCNCc1ccc(C#Cc2cncnc2Nc2ccc(OCc3cccc(F)c3)c(Cl)c2)o1` it is no more than 10 µM; for `Fc1cccc(COc2ccc(Nc3ncncc3C#Cc3cn[nH]c3)cc2Cl)c1` it is no more than 10 µM.
`N#CCCNCc1ccc(C#Cc2cncnc2Nc2ccc(OCc3cccc(F)c3)c(Cl)c2)o1` displayed an IC50 of no more than 10 µM.
`Fc1cccc(C#Cc2cncnc2Nc2ccc(OCc3cccc(F)c3)c(Cl)c2)c1` had an IC50 of no more than 10 µM.
The figure for `O=C(Nc1cccc(C#Cc2cncnc2Nc2ccc(OCc3cccc(F)c3)c(Cl)c2)n1)C(F)(F)Cl` is no more than 10 µM.
The figure for `Fc1cccc(COc2ccc(Nc3ncncc3/C=C/c3ccccc3)cc2Cl)c1` is less than 0.1 µM; for `N#Cc1ccc(C#Cc2cncnc2Nc2ccc(OCc3ccc(F)cc3)c(Cl)c2)nc1N` it is no more than 10 µM; for `Fc1cccc(COc2ccc(Nc3ncncc3C#Cc3cccs3)cc2Cl)c1` it is no more than 10 µM.
The figure for `Fc1cccc(COc2ccc(Nc3ncncc3C#Cc3cccc(CN4CCOCC4)n3)cc2Cl)c1` is no more than 10 µM; for `Nc1ncc(/C=C/c2cncnc2Nc2ccc(OCc3cccc(F)c3)c(Cl)c2)cn1` it is no more than 10 µM.
Regarding `COc1ccc(/C=C/c2cncnc2Nc2ccc(OCc3cccc(F)c3)c(Cl)c2)cc1OC`, the IC50 was less than 0.1 µM.
With `Fc1cccc(COc2ccc(Nc3ncncc3C#Cc3ccccn3)cc2Cl)c1` the figure was no more than 10 µM.
The figure for `Oc1cccnc1/C=C/c1cncnc1Nc1ccc(OCc2cccc(F)c2)c(Cl)c1` is no more than 10 µM.
The figure for `Fc1cccc(COc2ccc(Nc3ncncc3C#Cc3cccc(CN4CCCCC4)n3)cc2Cl)c1` is less than 0.1 µM.
`CN(C)Cc1cccc(C#Cc2cncnc2Nc2ccc(OCc3cccc(F)c3)c(Cl)c2)n1` had an IC50 of no more than 10 µM.
For the compound `C(=C\c1cncnc1Nc1ccc2[nH]c(Cc3ccccc3)nc2c1)/c1ccccc1`, the IC50 was no more than 10 µM.
With `O=Cc1ccccc1C#Cc1cncnc1Nc1ccc(OCc2cccc(F)c2)c(Cl)c1` the figure was no more than 10 µM; with `Nc1ncc(/C=C/c2cncnc2Nc2ccc3c(cnn3Cc3ccccc3)c2)cn1`, no more than 10 µM.
The figure for `CC(=O)Nc1cccc(C#Cc2cncnc2Nc2ccc(Oc3ccccc3)cc2)c1` is no more than 10 µM.
With `CC(=S)Nc1cccc(C#Cc2cncnc2Nc2ccc(OCc3cccc(F)c3)c(Cl)c2)c1` the figure was no more than 10 µM; with `CC(=O)Nc1cccc(C#Cc2cncnc2Nc2ccc(OCc3cccc(F)c3)c(Cl)c2)n1`, no more than 10 µM; with `Nc1ccc(C#Cc2cncnc2Nc2ccc(OCc3cccc(F)c3)c(Cl)c2)cc1`, no more than 10 µM.
The compound `CN1CCN(Cc2cccc(C#Cc3cncnc3Nc3ccc(OCc4cccc(F)c4)c(Cl)c3)n2)CC1` gave an IC50 of no more than 10 µM.
The figure for `Fc1cccc(COc2ccc(Nc3ncncc3/C=C/c3cccs3)cc2Cl)c1` is no more than 10 µM.
The figure for `CC(=O)Nc1cccc(C#Cc2cncnc2Nc2ccc(OCc3cccc(F)c3)c(Cl)c2)c1` is no more than 10 µM.
With `Fc1cccc(COc2ccc(Nc3ncncc3C#Cc3cccc(CN4CCNCC4)n3)cc2Cl)c1` the figure was no more than 10 µM; with `Fc1cccc(COc2ccc(Nc3ncncc3C#Cc3nccs3)cc2Cl)c1`, no more than 10 µM; with `CC(=O)Nc1cccc(/C=C/c2cncnc2Nc2ccc3c(cnn3Cc3ccccc3)c2)c1`, no more than 10 µM.
`Fc1cccc(COc2ccc(Nc3ncncc3C#Cc3cccc(CNCCCn4ccnc4)n3)cc2Cl)c1`: the IC50 was less than 0.1 µM.
Compound `OCc1nc(C#Cc2cncnc2Nc2ccc(OCc3cccc(F)c3)c(Cl)c2)cs1` gave an IC50 of no more than 10 µM.
For `Fc1cccc(COc2ccc(Nc3ncncc3C#Cc3ncccn3)cc2Cl)c1`, the IC50 is no more than 10 µM.
With `CC(=O)Nc1cccc(C#Cc2cncnc2Nc2ccc3[nH]c(Cc4ccccc4)nc3c2)c1` the figure was no more than 10 µM; with `Fc1cccc(COc2ccc(Nc3ncncc3/C=C/c3ccsc3)cc2Cl)c1`, less than 0.1 µM; with `Cc1ccc(S(=O)(=O)n2ccc3ccc(C#Cc4cncnc4Nc4ccc(OCc5cccc(F)c5)c(Cl)c4)cc32)cc1`, no more than 10 µM.
With `COc1cccc(C#Cc2cncnc2Nc2ccc(OCc3cccc(F)c3)c(Cl)c2)n1` the figure was no more than 10 µM; with `CN(CCO)Cc1cccc(C#Cc2cncnc2Nc2ccc(OCc3cccc(F)c3)c(Cl)c2)n1`, no more than 10 µM.
Regarding `C(=C\c1cncnc1Nc1ccc2sc(Cc3ccccc3)nc2c1)/c1ccsc1`, the IC50 was greater than 1 µM.
With `C(=C\c1cncnc1Nc1ccc2[nH]c(Cc3ccccc3)nc2c1)/c1ccsc1` the figure was no more than 10 µM; with `O=Cc1cccc(C#Cc2cncnc2Nc2ccc(OCc3cccc(F)c3)c(Cl)c2)c1`, no more than 10 µM.
The figure for `COCCNCc1cccc(C#Cc2cncnc2Nc2ccc(OCc3cccc(F)c3)c(Cl)c2)n1` is no more than 10 µM; for `Nc1cccc(C#Cc2cncnc2Nc2ccc(OCc3cccc(F)c3)c(Cl)c2)n1` it is less than 0.1 µM.
The figure for `Fc1cccc(COc2ccc(Nc3ncncc3C#Cc3cccc(CN4CCCC4)n3)cc2Cl)c1` is no more than 10 µM.
In turn, `Nc1cccc(C#Cc2cncnc2Nc2ccc(OCc3cccc(F)c3)c(Cl)c2)c1` gave a concentration for half-maximal inhibition (IC50) of no more than 10 µM.
The compound `Fc1cccc(COc2ccc(Nc3ncncc3C#Cc3ccc4c(c3)CNCC4)cc2Cl)c1` registered a half-inhibitory concentration (IC50) of no more than 10 µM.
Compound `CC(=O)NCc1cccc(C#Cc2cncnc2Nc2ccc(OCc3cccc(F)c3)c(Cl)c2)c1` yielded an IC50 of no more than 10 µM.
`CNC(=O)c1cccc(/C=C/c2cncnc2Nc2ccc3[nH]c(Cc4ccccc4)nc3c2)c1` displayed an IC50 of no more than 10 µM.
The compound `CS(=O)(=O)CCNC(=O)NCc1cccc(C#Cc2cncnc2Nc2ccc(OCc3cccc(F)c3)c(Cl)c2)n1` registered an IC50 of less than 0.1 µM.
